The values that follow come from patent US8802826B2, “Anti-clusterin antibodies and antigen binding fragments and their use to reduce tumor volume” (Alethia Biotherapeutics Inc., priority 2009, dated 2014).

In experiment [1] the target is T1, murine clusterin (Mus musculus, UniProt Q06890).
T1 construct: murine clusterin that was expressed in BR1-JM01 cells; endogenous in cells; host or cells: BR1-JM01 mouse mammary carcinoma cells
Briefly: immunofluorescence on BR1-JM01 cells. In kind it is binding.

The subject of experiment [2] is EMT6 cells. As to the kind of experiment: wound healing (scratch) migration assay. In kind it is cell-based, mouse. The conditions noted are these: for activity in the scratch assay relative to the other antibodies: comparison between 16B5 configurations. On the procedure:
FIG. 4. h16B5 blocks the migration of cancer cell lines.
To test the activity of anti-clusterin antibodies against cancer cell migration, a standard wound healing, or scratch assay, was used. In this assay, EMT6 cells, a mouse mammary carcinoma cell line, was plated at high density and subjected to wounding by the creation of a scratch in the cell layer. At time 0, a wide denuded area is evident that quickly fills up after incubation of the cells at 37 C for 15 h (see upper left-hand panels in FIG. 4).

For experiment [3], the system named is PC-3 prostate cancer cells. Briefly: PC-3 prostate tumor xenograft. In kind it is in vivo, SCID mice. On the procedure: PC-3 prostate cancer cells (2×10^6) were implanted s.c. into SCID mice and allowed to grow until the tumor sizes were approximately 100 mm^3. Tumors were measured bi-weekly with a digital caliper and tumor volumes were calculated as L×W×H. Each group contained 8 animals that were randomized prior to the beginning off the treatments. The results were expressed as mm^3±SEM.
A second prostate cancer model study was conducted in a different tumor model by implanting PC-3 prostate cancer cells. PC-3 cells are also hormone-insensitive but are documented as being slightly more invasive than the DU145 cells. As was described above, the cells were implanted sub-cutaneously in SCID mice and treatments were initiated when the tumors reached a volume of approximately 100 mm^3 (designated day 1). The h16B5 injections were administered i.p. on day 1 at 5 mg/kg and continued twice per week thereafter whereas a single TxT injection at 10 mg/kg was administered i.p. on day 5.

For experiment [4], the system named is DU145 cells. As to the kind of experiment: growth in Matrigel, DU145. In kind it is cell-based, human. The following applies: 8 μg/mL, up to 3 weeks. On the procedure:
(§1) FIG. 5. Inhibition of h16B5 reduces the invasiveness of human prostate cancer cells. The bottom of 12-well plates was covered with 200 μL Growth factor reduced matrigel (Becton Dickinson). Cells (2.5×10^4) were resuspended in 200 μL matrigel, which was layered on top of this, and finally 500 μL of cell specific growth medium was added on top of the matrigel. h16B5 was added to every layer of matrigel as well as the medium in a concentration of 8 μg/mL. Plates were incubated at 37° C. for up to 3 weeks during which the growth medium (+/−h16B5) was replenished weekly. The arrows indicate the areas of epithelial-like cells.
(§2) We then determined whether other cell lines such as the human prostate PC3 and DU145 cell lines, which secrete various levels of endogenous clusterin, could be affected in their invasive behavior and growth by the h16B5.

In experiment [5] the target is T2, human clusterin (recombinant monomeric clusterin) (Homo sapiens, UniProt P10909).
T2 construct: Recombinant monomeric clusterin was immobilized on a CM3 chip with normal amine coupling method
Briefly: BIAcore kinetic analysis of antibody binding to immobilized clusterin. On the procedure:
The purpose of these investigations is to determine the kinetics parameters of anti-clusterin antibodies. In particular, to determine whether the humanization of the 16B5 and 21B12 anti-clusterin monoclonal antibody affects the kinetics parameters of its binding to human clusterin. To this end, a kinetic analysis method was developed using the BIAcore 3000. Human clusterin was immobilized on a sensor chip. Full length antibodies or Fab fragments were injected and allowed to interact with the immobilized clusterin. This example described the exemplary antibody 16B5 but the 21B12 exemplary antibody was prepared and tested in a similar manner.
HBST (10 mM Hepes pH 7.4, 135 mM NaCl, 3.4 mM EDTA, 0.005% Tween 20) was used as running buffer for all BIAcore experiments. Recombinant monomeric clusterin was immobilized on a CM3 chip with normal amine coupling method at a flow of 5 μl/min. Surface was activated with 35 μl of a mixture of 50 mM NHS/0.2M EDC. Clusterin in 10 mM Na-acetate pH 4.5 was injected until a desired amount was captured (below 60RU). Unreacted esters were deactivated with 35 μL1 of 1M ethanolamine hydrochloride-NaOH pH8.5. A control surface was prepared by injecting NHS/EDC and ethanolamine in the same manner.
Kinetics analysis was conducted at a flow of 50 μl/min. Full length antibodies (mouse or humanized) or Fab were diluted in HBST. Concentration range was from 1.953-31.25 nM for the full length antibodies and 15.625-250 nM for the Fab. Each concentration was injected over the clusterin and a control surface for 5 min followed with a 5 min dissociation wash. The clusterin surface was regenerated between each antibody injection with 50 μl of 20 mM HCl.
(SPR reads the build-up and loss of mass on a sensor chip optically.)

Experiment [6] has as its system PC3 tumor cell line. Briefly: invasive growth in Matrigel, PC3. In kind it is cell-based, human. The following applies: 8 μg/mL, up to 3 weeks. On the procedure: as §1, §2
The test system of experiment [7] is DU145 human prostate cancer cell line. As to the kind of experiment: DU145 prostate tumor xenograft. In kind it is in vivo, SCID mice. The following applies: 5 mg/kg i.p. twice per week. On the procedure: FIG. 6. Treatment of prostate cancer tumors with h16B5 reduces the growth of the tumors and increases their response to chemotherapy. DU145 prostate cancer cells (2×10^6) were implanted s.c. into SCID mice and allowed to grow until the tumor sizes were approximately 100 mm3. Tumors were measured bi-weekly with a digital caliper and tumor volumes were calculated as L×W×H. Each group contained 8 animals that were randomized prior to the beginning off the treatments. The results were expressed as mm^3±SEM. The P values were calculated using the Student's T test.
These studies were performed to measure the in vivo efficacy of h16B5 in models of human cancer. Antisense oligonucleotides and small interfering RNAs targeting clusterin have been reported to induce apoptosis and chemosensitivity in vitro in prostate cancer xenografts. The model system that was used comprised the DU145 human prostate cancer cell line that is androgen-insensitive and represents one of the most well characterized models for this disease. Thus, 2 million cells were implanted sub-cutaneously into the flanks of SCID mice and the tumors were allowed to grow to approximately 100 mm^3. Starting on day 1, h16B5 was injected intra-peritoneally (i.p.) at a dosage of 5 mg/kg and from day 4, taxotere (TxT) was injected i.p. at a dosage of 10 mg/kg. […]

T2 sequence (P10909 23-449): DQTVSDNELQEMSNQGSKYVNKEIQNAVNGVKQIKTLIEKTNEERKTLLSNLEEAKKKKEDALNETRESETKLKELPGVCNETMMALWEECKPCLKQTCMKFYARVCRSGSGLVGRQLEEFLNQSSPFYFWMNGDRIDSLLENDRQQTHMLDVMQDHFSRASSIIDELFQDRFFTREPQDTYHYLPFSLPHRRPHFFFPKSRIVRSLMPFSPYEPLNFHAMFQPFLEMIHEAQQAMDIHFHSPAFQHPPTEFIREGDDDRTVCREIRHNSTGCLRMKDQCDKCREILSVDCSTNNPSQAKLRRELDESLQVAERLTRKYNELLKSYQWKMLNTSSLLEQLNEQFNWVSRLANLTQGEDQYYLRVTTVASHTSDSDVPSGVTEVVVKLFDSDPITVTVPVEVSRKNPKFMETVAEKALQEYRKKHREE
T1 sequence (Q06890 22-448): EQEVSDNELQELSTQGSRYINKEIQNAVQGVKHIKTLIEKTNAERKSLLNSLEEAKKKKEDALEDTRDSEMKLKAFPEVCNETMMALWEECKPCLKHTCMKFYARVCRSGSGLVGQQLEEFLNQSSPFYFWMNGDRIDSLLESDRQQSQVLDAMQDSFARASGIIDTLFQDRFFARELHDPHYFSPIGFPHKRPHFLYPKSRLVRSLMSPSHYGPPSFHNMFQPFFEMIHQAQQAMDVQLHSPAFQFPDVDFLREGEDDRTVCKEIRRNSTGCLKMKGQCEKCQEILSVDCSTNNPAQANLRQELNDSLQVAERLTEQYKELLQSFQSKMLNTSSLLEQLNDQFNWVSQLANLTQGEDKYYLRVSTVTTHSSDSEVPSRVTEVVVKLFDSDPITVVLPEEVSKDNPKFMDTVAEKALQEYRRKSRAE

Turning to “h16B5: humanized anti-clusterin IgG2 antibody, heavy chain SEQ ID NO.:9 and light chain SEQ ID NO.:10”, the “detection of murine clusterin expressed in BR1-JM01 cells” value in experiment [1] is on record as “detected murine clusterin”. For the same substance, the “migration of cells into the denuded area” value in experiment [2] (37 C for 15 h) is “blockage of migration”. Also, the “activity in the scratch assay relative to the other antibodies” value in experiment [2] is recorded as “at least as active as the mouse 16B6”; in experiment [2] (listed as humanized 16B5), “most effective inhibitor”. Also, the “increase in overall survival” value in experiment [3] (5 mg/kg i.p. twice per week) came out at 47%. Moreover, the mice remaining alive result in experiment [3] (day 43 (no remaining animals in the control group)) is “greater than 60%”. The “reduction in average tumor size compared to the control group” value in experiment [3] (day 43, 5 mg/kg i.p. twice per week) is on record as 37%. In addition, the “survival of the animals” value in experiment [3] (h16B5 in combination with TxT) is “extended the survival”. Besides, the “sphere-like structures in Matrigel” value in experiment [4] is “smaller and fewer in number”. Besides, the “kinetics parameters compared with the parent mouse antibody” value in experiment [5] (full length vs full length, Fab vs Fab) is on record as “very similar”. For the same substance, the “KD of the interaction with immobilized human clusterin” value in experiment [5] (stated in words) is listed as “low nM range”. Also, the “stellate morphology in Matrigel (invasive phenotype)” value in experiment [6] is on record as “significantly reduced”. Moreover, the “growth of the (primary) tumors compared to the control” value in experiment [7] is “significantly reduced”.
